This passage reports EC50, IC50 and outcome results from PubChem BioAssay AID179 (DTP/NCI, 2004).

The assay has as its system CEM cells HIV-1 protection, formazan growth assay. In words: NCI AIDS Antiviral Assay. As to conditions: for IC50: measured here: growth of uninfected CEM cells. In short, it runs like this: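 Soluble formazan readout of cell growth; CEM cells ± HIV-1; 5 drug concs. ≥50% protection → retest; ≥50% again = moderately active; reproducible 100% = confirmed active.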

Active and inactive are the calls of the source.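 The calls were made as follows: active = compounds giving half or more protection of infected cells from virus-caused growth loss, again on retest; inactive = the rest.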 Where a SMILES comes first, the peptide text is derived from it. The star is where a group is joined. Cbz = O=C(OCc1ccccc1)* A value given as a limit tells only on which side of the number the result lay.

On to `CCCCc1c2c(nc3c1CC/C(=C\c1ccc([N+](=O)[O-])cc1)C3=O)CCCC2`, for which the EC50 is greater than 6.92 µM and the IC50 came to 1.32 µM.
On the same counts, the results for `C1=NCCNc2nc3ccccc3cc2C=NCCNc2nc3ccccc3cc21` are greater than 200 µM and greater than 200 µM.
On to `COc1ccc(C2=C(OC(=O)N(C)C)c3cccn3-c3cc(Cl)ccc3S2)cc1`, for which the EC50 was greater than 100 µM and the IC50 worked out at 87.1 µM.
On the same counts, the results for `N#CC(C(=O)CCC(=O)C(C#N)c1ccccc1)c1ccccc1` (configuration not stated) are greater than 398 µM and greater than 398 µM.
On the same counts, the results for `COC(=O)c1cc(C(=CC(=O)N[C@@H]2CC[C@@]3(C)[C@@H](CC[C@@H]4[C@@H]3CC[C@]3(C)[C@@H]([C@H](C)CCCC(C)C)CC[C@@H]43)C2)c2cc(Cl)c(OC)c(C(=O)OC)c2)cc(Cl)c1OC` are greater than 100 µM and greater than 100 µM.
As for `CN(C)CC1CCCC(CN(C)C)C1O` (configuration not stated), the EC50 was greater than 871 µM and the IC50 is greater than 871 µM.
For `C=C1CC(Cn2cc(Br)c(=O)[nH]c2=O)(c2ccc(-c3ccccc3)cc2)OC1=O` (configuration not stated), the EC50 is greater than 20 µM and the IC50 was found to be 0.457 µM.
Regarding `NNC(=O)C(=O)N/N=C(\CCCC(=O)Nc1ccc(Cl)cc1)CC(=O)c1ccc(F)cc1`, the EC50 is greater than 269 µM and the IC50 was greater than 269 µM.
For `COc1ccc(-c2csc(=[N+]3CCCCC3)s2)cc1`, the outcome was inactive.
As for `C[CH2][Pb]([CH2]C)([CH2]C)[O]C(=O)COc1ccc(Cl)cc1Cl`, the EC50 was greater than 2 µM and the IC50 is 0.575 µM.
For the compound `CCOC(=O)C(C)NC(=O)C(C)NC(=O)C(C)NC(=O)C(C)NC(=O)C(C)NC(=O)C(C)NC(=O)C(C)NC(=O)OCc1ccccc1` (configuration not stated) (Cbz-AAAAAAA-OEt; configuration not given here), the EC50 was greater than 200 µM and the IC50 was greater than 200 µM.
With `COc1ccc(C2CC(=O)Oc3ccccc3O2)cc1` (configuration not stated), the EC50 was 102 µM and the IC50 came out at 151 µM.
For `COc1cccc2c1C(=O)c1c(O)c3c(c(O)c1C2=O)C[C@@](O)(C(=O)CO)C[C@@H]3OC1CC(N2CCOCC2)C(O)C(C)O1` (some centres not stated), the result was inactive.
Turning to `O=C(Cc1csc2[n+]1C(=O)/C(=C/c1cccc([N+](=O)[O-])c1)S2)Nc1ccccc1`, the outcome was inactive.
As for `COc1ccc(NC(=O)CC(=O)n2nc(-c3ccccc3)c(N=Nc3ccccc3C)c2-c2ccccc2)cc1`, the EC50 is greater than 13.5 µM and the IC50 is greater than 13.5 µM.
As for `C=CCc1cccc(/C(O)=C/C(=O)/C=C/c2ccccc2Cl)c1O`, the EC50 was greater than 200 µM and the IC50 stood at 35.5 µM.
`CN1CCN(c2c(C(=O)Nc3ccc([N+](=O)[O-])cc3)cc([N+](=O)[O-])cc2[N+](=O)[O-])CC1`: the EC50 is greater than 200 µM and the IC50 is greater than 100 µM.
Regarding `CCOC(=O)C1(C/C=C/CCl)CCCC1=O` (configuration not stated), the EC50 was greater than 200 µM and the IC50 amounted to 10 µM.
Turning to `CC(=O)OCC1OC(n2c3c(c(-c4ccc(Cl)cc4)c(C#N)c2=S)C(=O)CC(C)(C)C3)C(OC(C)=O)C(OC(C)=O)C1OC(C)=O` (configuration not stated), the EC50 is greater than 200 µM and the IC50 came out at 6.46 µM.
Taken in the same sequence, the figures for `CC1=NN(c2nc(N)nc(-c3sccc3N)n2)C(C)(C)C1` were greater than 200 µM and 77.6 µM.
Taken in the same sequence, the figures for `Nc1nc(Cl)c(N)c(NCC2(CO)CC(OCc3ccccc3)C2)n1` (configuration not stated) were greater than 20 µM and 2.14 µM.
Taken in the same sequence, the figures for `Cc1ccc(-c2cn3c(nc4ccccc43)c(C)n2)cc1` were greater than 200 µM and 66.1 µM.
As to `C=CCN=C1N=C(CC(=O)OCC)CS1`, the result was inactive.
Regarding `Cn1c(Cl)cn2c3nc4ccccc4nc3c(=O)c(C#N)c12`, the outcome was inactive.
As for `COc1ccc(CN2COc3c(ccc4cccnc34)C2)cc1`, the EC50 is greater than 200 µM and the IC50 came out at 0.759 µM.
On the same counts, the results for `Cc1cn(CCCCOC(=O)NC(CCCN=C(N)N)C(=O)O)c(=O)[nH]c1=O` (configuration not stated) are greater than 200 µM and greater than 200 µM.
Regarding `O=C1CCCC/C1=C\c1ccc(Cl)c(Cl)c1`, the outcome was inactive.
As to `O=[N+]([O-])c1c(O)c2nonc2c2nn(-c3ccccc3)nc12`, the EC50 is greater than 200 µM and the IC50 came to 120 µM.
As for `COc1ccccc1N=C(N)N/N=C/c1c[nH]c2ccccc12`, the outcome was inactive.
Take `O=Nc1c(O)c2ccccc2[nH]c1=O`: the EC50 was greater than 200 µM and the IC50 worked out at 45.7 µM.
On the same counts, the results for `CCN(CC)CCN(C(=O)C(C)(C)C)c1ccccc1N` are greater than 200 µM and greater than 200 µM.
On the same counts, the results for `CC(C)SC(C)(NC(=O)C1C(C)(C)CCC1(C)C)C(=O)O` (configuration not stated) are greater than 200 µM and greater than 200 µM.
Turning to `CCCCCOC(=O)C(=O)Nc1n[nH]nc1C(N)=O`, the EC50 was greater than 200 µM and the IC50 is greater than 200 µM.
For `OC[C@@H]1C2CCC([C@@H]1CO)C2(Cc1ccccc1)Cc1ccccc1`, the EC50 is greater than 89.1 µM and the 50% inhibitory concentration (IC50) was greater than 89.1 µM.
Turning to `N.N.N.N.O=C([O-])CCl.O=C([O-])CCl.[Co+3].[O-][Cl+3]([O-])([O-])[O-]`, the result was inactive.
As to `COc1ccccc1N1C(=O)/C(=C\c2cc(OC)c(OC)c(OC)c2)S(=O)(=O)C1c1ccccc1` (configuration not stated), the EC50 is greater than 200 µM and the 50% inhibitory concentration (IC50) is 38 µM.
On the same counts, the results for `Cc1cc2c(=O)cc(-c3ccccc3Cl)oc2c(C#N)c1C` are greater than 100 µM and greater than 100 µM.
On the same counts, the results for `COc1ccc2c(c1)c(OC)c(CC(O)C(C)(C)O)c(=O)n2C` (configuration not stated) are greater than 200 µM and greater than 200 µM.
Taken in the same sequence, the figures for `O=C1CN(c2ccccc2)C(=O)CN1NCNN1CC(=O)N(c2ccccc2)CC1=O` were greater than 200 µM and greater than 200 µM.
Turning to `O=[N+]([O-])c1nccn1CCCNc1c2ccccc2nc2ccccc12`, the outcome was inactive.
Same read-out and setting: the same measure for `CC(C)OP(=O)(OC(C)C)C(N(C)C)P(=O)(OC(C)C)OC(C)C.[Cl][Sn]([Cl])([Cl])[c]1ccccc1`: “inactive”.
As for `COc1ccc(N=C2SC(=N/N=c3\sc4ccccc4n3C)SC2=Nc2ccc(OC)cc2)cc1`, the EC50 is greater than 200 µM and the IC50 came to 63.1 µM.
On the same counts, the results for `CC(C)CC1NC(CC(C)C)N2C(CC(C)C)N12` (configuration not stated) are greater than 39.8 µM and greater than 39.8 µM.
Take `O=C(CC(=O)n1nc(-c2ccccc2)c(N=Nc2ccc(Cl)cc2)c1-c1ccccc1)Nc1ccc(Cl)cc1`: the EC50 is greater than 18.2 µM and the IC50 was greater than 18.2 µM.
For `C1=NN2C(c3ccccc3)=NOC2C2C(c3ccccc3)=NOC12` (configuration not stated), the EC50 was greater than 200 µM and the IC50 is greater than 200 µM.
As to `COC(=O)CCC1CCc2c(OC)ccc(OC)c2C1=O` (configuration not stated), the result was inactive.
Regarding `COc1ccc(Cc2nccc3cc(OC)c(OC)cc23)cc1`, the EC50 was greater than 72.4 µM and the IC50 was found to be 69.2 µM.
Consider `FC(F)(F)c1cc(NC2=NCCN=C(Nc3cc(C(F)(F)F)cc(C(F)(F)F)c3)SS2)cc(C(F)(F)F)c1`, for which the EC50 is greater than 200 µM and the IC50 is 3.16 µM.
On the same counts, the results for `CCN(CC)CCCC(C)Nc1cc(-c2ccccc2)nc2cc(Cl)ccc12` (configuration not stated) are greater than 427 µM and 2.45 µM.
Taken in the same sequence, the figures for `[N-]=[N+]=NCCCCCCCCCCCC(=O)O` were greater than 200 µM and 81.3 µM.
For `COc1ccc(OCC(=O)O)c2c1CCC(C)C2=O` (configuration not stated), the result was inactive.
Take `O=C(O)/C=C/CCC1SCC2NC(=O)NC21` (configuration not stated): the EC50 is greater than 107 µM and the IC50 was greater than 107 µM.
Turning to `O=c1[nH]c2c(c3ccccc13)CCc1ccccc1-2`, the outcome was inactive.
Turning to `N#Cc1cnc(N)nc1NCC1(CO)CC(CCc2ccccc2)C1` (configuration not stated), the EC50 was greater than 200 µM and the IC50 stood at 7.24 µM.
Take `c1csc(-c2ccsc2-c2ccsc2)c1`: the EC50 was greater than 200 µM and the half-inhibitory concentration (IC50) was found to be 87.1 µM.
Taken in the same sequence, the figures for `c1ccc2[nH]c(CSc3nc4ccccc4[nH]3)nc2c1` were greater than 200 µM and greater than 200 µM.
Taken in the same sequence, the figures for `OC(c1cc2ccccc2[nH]1)C1(c2cccnc2)SCCCS1` (configuration not stated) were greater than 200 µM and 57.5 µM.
As for `NC(=O)NCCC[C@H](NC(=O)[C@H](CS)NC(=O)[C@@H](N)Cc1cnc[nH]1)C(=O)N[C@H](Cc1ccccc1)C(=O)N[C@@H](Cc1c[nH]c2ccccc12)C(=O)N[C@@H](Cc1c[nH]c2ccccc12)C(N)=O`, the EC50 is greater than 200 µM and the IC50 was greater than 200 µM.
On to `OCC1C(CO)C2CC1C1N=NN(c3ccccc3)C21` (configuration not stated), for which the EC50 is greater than 324 µM and the half-maximal inhibitory concentration (IC50) was greater than 324 µM.
Take `CCCN1CCC=C([Si](C)(C)C)C1`: the result was inactive.
Consider `O=C1Nc2ccccc2Oc2ccccc21`, for which the EC50 is 51.3 µM and the IC50 is greater than 200 µM.
With `C=C1C(=O)OC2C1C(OC(=O)/C(=C/C)COC(C)=O)CC1(CO1)C1C(OC(=O)/C(=C/C)CO)C=C(C)C21` (configuration not stated), the outcome was inactive.
Consider `ClCCCC1COc2ccccc2O1` (configuration not stated), for which the EC50 was greater than 200 µM and the IC50 was greater than 200 µM.
Regarding `COc1ccccc1NC(=O)C1=C(C)NC(C)=C(C(=O)Nc2ccccc2OC)C1/C=C/c1ccccc1`, the result was inactive.
`COc1ccc(/C=C/C(=O)NCC(NC(=O)/C=C/c2ccc(OC)c(OC)c2)C(=O)O)cc1OC` (configuration not stated): the EC50 is greater than 200 µM and the IC50 was greater than 200 µM.
For `COc1ccc(/C(C)=N/NC(=S)N(C)C)c(O)c1`, the EC50 is greater than 200 µM and the IC50 stood at 4.79 µM.
Taken in the same sequence, the figures for `O=C(c1ccccc1)C(O)(CC(c1ccccc1)[P+](c1ccccc1)(c1ccccc1)c1ccccc1)c1ccccc1` (configuration not stated) were greater than 200 µM and 1.17 µM.
On the same counts, the results for `Cc1ccc(S(=O)(=O)n2c3c(c4ccccc42)CCN2C[C@H]([C@H](C)Br)CC[C@@H]32)cc1` are greater than 200 µM and 42.7 µM.
Taken in the same sequence, the figures for `CC(=O)OCC(OC(C)=O)C(OC(C)=O)C1OC(Oc2ccccc2)C(OC(C)=O)C1OC(C)=O` (configuration not stated) were greater than 200 µM and greater than 200 µM.

For orientation: EC50 means the concentration at which the effect is half-maximal. Broadly, the IC50 is the concentration that inhibits the measured activity by half. Lower therefore signals greater potency in that assay.
